In ChEMBL document CHEMBL3112509, “Synthesis and antimicrobial activity of (1,4-phenylene)bis(arylsulfonylpyrazoles and isoxazoles)” (2014):
Converted amounts (≈) assume the structure as drawn.

Legend:
Assay type in all cases: functional
Penicillium chrysogenum [1] = assay: Antifungal activity against Penicillium chrysogenum after 48 hrs
Aspergillus niger [2] = assay: Antifungal activity against Aspergillus niger after 48 hrs
Penicillium chrysogenum [3] = assay: Antifungal activity against Penicillium chrysogenum after 48 hrs by broth dilution test
Klebsiella pneumoniae [4] = assay: Antibacterial activity against Klebsiella pneumoniae after 24 hrs
Aspergillus niger [5] = assay: Antifungal activity against Aspergillus niger after 48 hrs by broth dilution test
Klebsiella pneumoniae [6] = assay: Antibacterial activity against Klebsiella pneumoniae after 24 hrs by broth dilution test
Pseudomonas aeruginosa [7] = assay: Antibacterial activity against Pseudomonas aeruginosa after 24 hrs
Bacillus subtilis [8] = assay: Antibacterial activity against Bacillus subtilis after 24 hrs
Pseudomonas aeruginosa [9] = assay: Antibacterial activity against Pseudomonas aeruginosa after 24 hrs by broth dilution test
Bacillus subtilis [10] = assay: Antibacterial activity against Bacillus subtilis after 24 hrs by broth dilution test
Staphylococcus aureus [11] = assay: Antibacterial activity against Staphylococcus aureus after 24 hrs
Staphylococcus aureus [12] = assay: Antibacterial activity against Staphylococcus aureus after 24 hrs by broth dilution test
Penicillium chrysogenum [13] = assay: Antifungal activity against Penicillium chrysogenum at 100 ug/well after 48 hrs by agar well diffusion method; conditions: read-out: DIZ
Penicillium chrysogenum [14] = assay: Antifungal activity against Penicillium chrysogenum at 50 ug/well after 48 hrs by agar well diffusion method; conditions: read-out: DIZ
Aspergillus niger [15] = assay: Antifungal activity against Aspergillus niger at 50 ug/well after 48 hrs by agar well diffusion method; conditions: read-out: DIZ
Aspergillus niger [16] = assay: Antifungal activity against Aspergillus niger at 100 ug/well after 48 hrs by agar well diffusion method; conditions: read-out: DIZ
Klebsiella pneumoniae [17] = assay: Antibacterial activity against Klebsiella pneumoniae at 100 ug/well after 24 hrs by agar well diffusion method; conditions: read-out: DIZ
Klebsiella pneumoniae [18] = assay: Antibacterial activity against Klebsiella pneumoniae at 50 ug/well after 24 hrs by agar well diffusion method; conditions: read-out: DIZ
Pseudomonas aeruginosa [19] = assay: Antibacterial activity against Pseudomonas aeruginosa at 100 ug/well after 24 hrs by agar well diffusion method; conditions: read-out: DIZ
Pseudomonas aeruginosa [20] = assay: Antibacterial activity against Pseudomonas aeruginosa at 50 ug/well after 24 hrs by agar well diffusion method; conditions: read-out: DIZ
Bacillus subtilis [21] = assay: Antibacterial activity against Bacillus subtilis at 100 ug/well after 24 hrs by agar well diffusion method; conditions: read-out: DIZ
Bacillus subtilis [22] = assay: Antibacterial activity against Bacillus subtilis at 50 ug/well after 24 hrs by agar well diffusion method; conditions: read-out: DIZ
Staphylococcus aureus [23] = assay: Antibacterial activity against Staphylococcus aureus at 100 ug/well after 24 hrs by agar well diffusion method; conditions: read-out: DIZ
Staphylococcus aureus [24] = assay: Antibacterial activity against Staphylococcus aureus at 50 ug/well after 24 hrs by agar well diffusion method; conditions: read-out: DIZ

MIC (Penicillium chrysogenum [3]) [µg/mL] | MIC (Aspergillus niger [5]) [µg/mL] | MIC (Klebsiella pneumoniae [6]) [µg/mL] | MIC (Pseudomonas aeruginosa [9]) [µg/mL] | MIC (Bacillus subtilis [10]) [µg/mL] | MIC (Staphylococcus aureus [12]) [µg/mL] | Compound | MFC (Penicillium chrysogenum [1]) [µg/mL] | MFC (Aspergillus niger [2]) [µg/mL] | MBC (Klebsiella pneumoniae [4]) [µg/mL] | MBC (Pseudomonas aeruginosa [7]) [µg/mL] | MBC (Bacillus subtilis [8]) [µg/mL] | MBC (Staphylococcus aureus [11]) [µg/mL] | zone of inhibition at 100 µg/disc (Klebsiella pneumoniae [17]) [mm] | zone of inhibition at 50 µg/disc (Klebsiella pneumoniae [18]) [mm] | zone of inhibition at 100 µg/disc (Pseudomonas aeruginosa [19]) [mm] | zone of inhibition at 50 µg/disc (Pseudomonas aeruginosa [20]) [mm] | zone of inhibition at 100 µg/disc (Bacillus subtilis [21]) [mm] | zone of inhibition at 50 µg/disc (Bacillus subtilis [22]) [mm] | zone of inhibition at 100 µg/disc (Staphylococcus aureus [23]) [mm] | zone of inhibition at 50 µg/disc (Staphylococcus aureus [24]) [mm] | other results
25 (≈ 31.9 µM) | 12.5 (≈ 16 µM) | 25 (≈ 31.9 µM) | 12.5 (≈ 16 µM) | 12.5 (≈ 16 µM) | 12.5 (≈ 16 µM) | O=S(=O)(c1ccc(Cl)cc1)c1c(-c2ccc(Cl)cc2)noc1-c1ccc(-c2onc(-c3ccc(Cl)cc3)c2S(=O)(=O)c2ccc(Cl)cc2)cc1 | 50 (≈ 63.9 µM) | 100 (≈ 128 µM) | 100 (≈ 128 µM) | 50 (≈ 63.9 µM) | 25 (≈ 31.9 µM) | 50 (≈ 63.9 µM) | 34 | 32 | 27 | 25 | 38 | 35 | 34 | 32 | zone of inhibition at 100 µg/disc (Penicillium chrysogenum [13]): 37 mm; zone of inhibition at 50 µg/disc (Penicillium chrysogenum [14]): 35 mm; zone of inhibition at 50 µg/disc (Aspergillus niger [15]): 30 mm; zone of inhibition at 100 µg/disc (Aspergillus niger [16]): 33 mm
25 (≈ 35 µM) | 50 (≈ 70.1 µM) | 100 (≈ 140 µM) | 50 (≈ 70.1 µM) | 25 (≈ 35 µM) | 50 (≈ 70.1 µM) | O=S(=O)(c1ccccc1)c1c(-c2ccc(Cl)cc2)noc1-c1ccc(-c2onc(-c3ccc(Cl)cc3)c2S(=O)(=O)c2ccccc2)cc1 | 100 (≈ 140 µM) | 200 (≈ 280 µM) | > 200 | 200 (≈ 280 µM) | 50 (≈ 70.1 µM) | 200 (≈ 280 µM) | 30 | 28 | 26 | 24 | 37 | 35 | 33 | 31 | zone of inhibition at 100 µg/disc (Penicillium chrysogenum [13]): 36 mm; zone of inhibition at 50 µg/disc (Penicillium chrysogenum [14]): 34 mm; zone of inhibition at 50 µg/disc (Aspergillus niger [15]): 29 mm; zone of inhibition at 100 µg/disc (Aspergillus niger [16]): 31 mm
25 (≈ 26.8 µM) | 50 (≈ 53.6 µM) | 100 (≈ 107 µM) | 50 (≈ 53.6 µM) | 50 (≈ 53.6 µM) | 50 (≈ 53.6 µM) | O=S(=O)(c1ccc(Cl)cc1)c1c(-c2ccc(Cl)cc2)nn(-c2ccccc2)c1-c1ccc(-c2c(S(=O)(=O)c3ccc(Cl)cc3)c(-c3ccc(Cl)cc3)nn2-c2ccccc2)cc1 | > 100 | > 200 | > 200 | > 200 | 200 (≈ 214 µM) | > 200 | 27 | 25 | 22 | 20 | 34 | 32 | 31 | 29 | zone of inhibition at 100 µg/disc (Penicillium chrysogenum [13]): 31 mm; zone of inhibition at 50 µg/disc (Penicillium chrysogenum [14]): 28 mm; zone of inhibition at 50 µg/disc (Aspergillus niger [15]): 34 mm; zone of inhibition at 100 µg/disc (Aspergillus niger [16]): 37 mm
25 (≈ 33.7 µM) | 50 (≈ 67.4 µM) | 100 (≈ 135 µM) | 50 (≈ 67.4 µM) | 25 (≈ 33.7 µM) | 50 (≈ 67.4 µM) | Cc1ccc(S(=O)(=O)c2c(-c3ccc(Cl)cc3)noc2-c2ccc(-c3onc(-c4ccc(Cl)cc4)c3S(=O)(=O)c3ccc(C)cc3)cc2)cc1 | 100 (≈ 135 µM) | > 200 | > 200 | > 200 | 100 (≈ 135 µM) | 200 (≈ 270 µM) | 28 | 26 | 24 | 22 | 36 | 33 | 32 | 30 | zone of inhibition at 100 µg/disc (Penicillium chrysogenum [13]): 34 mm; zone of inhibition at 50 µg/disc (Penicillium chrysogenum [14]): 32 mm; zone of inhibition at 50 µg/disc (Aspergillus niger [15]): 28 mm; zone of inhibition at 100 µg/disc (Aspergillus niger [16]): 30 mm

Compound | MIC (Penicillium chrysogenum [3]) [µg/mL] | MIC (Aspergillus niger [5]) [µg/mL] | MIC (Klebsiella pneumoniae [6]) [µg/mL] | MIC (Pseudomonas aeruginosa [9]) [µg/mL] | MIC (Bacillus subtilis [10]) [µg/mL] | MIC (Staphylococcus aureus [12]) [µg/mL] | MFC (Penicillium chrysogenum [1]) [µg/mL] | MFC (Aspergillus niger [2]) [µg/mL] | MBC (Klebsiella pneumoniae [4]) [µg/mL] | MBC (Pseudomonas aeruginosa [7]) [µg/mL] | MBC (Bacillus subtilis [8]) [µg/mL] | MBC (Staphylococcus aureus [11]) [µg/mL] | zone of inhibition at 100 µg/disc (Klebsiella pneumoniae [17]) [mm] | zone of inhibition at 50 µg/disc (Klebsiella pneumoniae [18]) [mm] | zone of inhibition at 100 µg/disc (Pseudomonas aeruginosa [19]) [mm] | zone of inhibition at 50 µg/disc (Pseudomonas aeruginosa [20]) [mm] | zone of inhibition at 100 µg/disc (Bacillus subtilis [21]) [mm] | zone of inhibition at 50 µg/disc (Bacillus subtilis [22]) [mm] | zone of inhibition at 100 µg/disc (Staphylococcus aureus [23]) [mm] | zone of inhibition at 50 µg/disc (Staphylococcus aureus [24]) [mm] | other results
O=C(N[C@H](CO)[C@H](O)c1ccc([N+](=O)[O-])cc1)C(Cl)Cl [CHLORAMPHENICOL] | – | – | 12.5 (≈ 38.7 µM) | 6.25 (≈ 19.3 µM) | 6.25 (≈ 19.3 µM) | 6.25 (≈ 19.3 µM) | – | – | – | – | – | – | 42 | 40 | 30 | 27 | 38 | 34 | 35 | 33 | –
